From BindingDB's records for doi:10.1080/14756360802187612 (Ben-Gurion University of The Negev, 2009)
Counter-ions that a name gives are not always drawn.

Target: Tryptophanase (Escherichia coli (strain K12), UniProt P0A853)
Test: Enzyme Inhibition Assay
Settings: pH 7.8; 25 °C
Excerpt: Enzyme inhibition assay using tryptophanase.

Tryptophanase, sequence (P0A853 whole entry): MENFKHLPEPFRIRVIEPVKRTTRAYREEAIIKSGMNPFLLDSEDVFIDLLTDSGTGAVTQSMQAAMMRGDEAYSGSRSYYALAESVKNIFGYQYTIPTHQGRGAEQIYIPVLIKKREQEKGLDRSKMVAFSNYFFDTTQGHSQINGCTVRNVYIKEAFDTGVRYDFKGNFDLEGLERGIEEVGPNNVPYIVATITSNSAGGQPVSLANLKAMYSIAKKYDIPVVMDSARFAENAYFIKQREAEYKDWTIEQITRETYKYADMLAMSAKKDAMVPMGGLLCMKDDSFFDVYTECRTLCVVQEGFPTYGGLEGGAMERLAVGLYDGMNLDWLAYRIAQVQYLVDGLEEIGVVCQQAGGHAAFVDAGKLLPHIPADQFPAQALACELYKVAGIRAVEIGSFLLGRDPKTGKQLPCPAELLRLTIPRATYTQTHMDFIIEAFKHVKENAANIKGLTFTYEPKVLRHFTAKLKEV

CCOC(=O)C(N)Cc1c[nH]c2ccccc12 [L-tryptophan-ethylester (p-toluene sulfuric acid salt)]
Ki: 52 µM

CC(=O)NC(Cc1c[nH]c2ccccc12)C(=O)O (configuration not stated) [N-acetyl tryptophan]
Ki: 48 µM
